In patent US20240358693A1, “METHODS OF TREATING PAIN” (Aisa Pharma, Inc., priority 2023, published 2024):

Test system: participants with SSc-RP
Test: Average duration of weekly RP attacks (minutes)
Assay type: in vivo, human
Conditions: Tadalafil 5 mg
Description: The absolute change in average duration of weekly RP attacks from baseline to the end of each dosing period was and will be a secondary outcome variable. The sponsor-developed participant-informed diary was and will be used to record data. Average duration of weekly RP attacks is defined as the total duration of RP attacks divided by total number of RP attacks within the last 7 days of each dosing period. Total duration of RP attacks during the last 7 days of screening period divided by the total number of RP attacks will be used as baseline for the analysis of all periods. The variable will be calculated similar to frequency data as before.

[1] = n=1, Excluding Outliers, ITT Part A
[2] = Baseline RCS subgroup 2 (unnamed), ITT Part A
[3] = Excluding Outliers, Baseline RCS subgroup 2 (unnamed), ITT Part A
[4] = Excluding Outliers, ITT Population - Part A
[5] = Excluding Outliers, by Baseline RCS, subgroup 2, ITT Population - Part A
[6] = by Baseline RCS, subgroup 2, ITT Population - Part A

## CN1CC(=O)N2[C@H](c3ccc4c(c3)OCO4)c3[nH]c4ccccc4c3C[C@@H]2C1=O [Tadalafil, tadalafil]
[1]
  Average Duration of Weekly Symptomatic RP Attacks, Change from Baseline, Mean: -4.58 min
  Average Duration of Weekly Symptomatic RP Attacks, Change from Baseline, Median: -4.58 min
  Average Duration of Weekly Symptomatic RP Attacks, Mean: 6.00 min
  Average Duration of Weekly Symptomatic RP Attacks, Median: 6.00 min
  Average Duration of Weekly Symptomatic RP Attacks, Percent Change from Baseline, Mean: −43.31%
  Average Duration of Weekly Symptomatic RP Attacks, Percent Change from Baseline, Median: −43.31%
n=2, ITT Part A
  Average Duration of Weekly Symptomatic RP Attacks, Change from Baseline, Mean: 140.74 min
  Average Duration of Weekly Symptomatic RP Attacks, Change from Baseline, Median: 140.74 min
  Average Duration of Weekly Symptomatic RP Attacks, Mean: 412.29 min
  Average Duration of Weekly Symptomatic RP Attacks, Median: 412.29 min
  Average Duration of Weekly Symptomatic RP Attacks, Percent Change from Baseline, Mean: 5.21%
  Average Duration of Weekly Symptomatic RP Attacks, Percent Change from Baseline, Median: 5.21%
[2]
  Average Duration of Weekly Symptomatic RP Attacks, Change from Baseline, Mean: 140.74 min
  Average Duration of Weekly Symptomatic RP Attacks, Change from Baseline, Median: 140.74 min
  Average Duration of Weekly Symptomatic RP Attacks, Mean: 412.29 min
  Average Duration of Weekly Symptomatic RP Attacks, Median: 412.29 min
  Average Duration of Weekly Symptomatic RP Attacks, Percent Change from Baseline, Mean: 5.21%
  Average Duration of Weekly Symptomatic RP Attacks, Percent Change from Baseline, Median: 5.21%
[3]
  Average Duration of Weekly Symptomatic RP Attacks, Change from Baseline, Mean: -4.58 min
  Average Duration of Weekly Symptomatic RP Attacks, Change from Baseline, Median: -4.58 min
  Average Duration of Weekly Symptomatic RP Attacks, Mean: 6.00 min
  Average Duration of Weekly Symptomatic RP Attacks, Median: 6.00 min
  Average Duration of Weekly Symptomatic RP Attacks, Percent Change from Baseline, Mean: −43.31%
  Average Duration of Weekly Symptomatic RP Attacks, Percent Change from Baseline, Median: −43.31%
[4]
  Average Duration of Weekly RP Attacks (All Attacks) Change from Baseline, Mean: -4.98 min
  Average Duration of Weekly RP Attacks (All Attacks) Change from Baseline, Median: -4.98 min
  Average Duration of Weekly RP Attacks (All Attacks) Percent Change from Baseline, Mean: −45.55%
  Average Duration of Weekly RP Attacks (All Attacks) Percent Change from Baseline, Median: −45.55%
  Average Duration of Weekly RP Attacks (All Attacks), Mean: 5.95 min
  Average Duration of Weekly RP Attacks (All Attacks), Median: 5.95 min
[5]
  Average Duration of Weekly RP Attacks (All Attacks) Change from Baseline, Mean: -4.98 min
  Average Duration of Weekly RP Attacks (All Attacks) Change from Baseline, Median: -4.98 min
  Average Duration of Weekly RP Attacks (All Attacks) Percent Change from Baseline, Mean: −45.55%
  Average Duration of Weekly RP Attacks (All Attacks) Percent Change from Baseline, Median: −45.55%
  Average Duration of Weekly RP Attacks (All Attacks), Mean: 5.95 min
  Average Duration of Weekly RP Attacks (All Attacks), Median: 5.95 min
ITT Part A
  Average Duration of Weekly RP Attacks (All Attacks) Change from Baseline, Mean: 91.80 min
  Average Duration of Weekly RP Attacks (All Attacks) Change from Baseline, Median: 91.80 min
  Average Duration of Weekly RP Attacks (All Attacks) Percent Change from Baseline, Mean: −7.81%
  Average Duration of Weekly RP Attacks (All Attacks) Percent Change from Baseline, Median: −7.81%
  Average Duration of Weekly RP Attacks (All Attacks), Mean: 412.26 min
  Average Duration of Weekly RP Attacks (All Attacks), Median: 412.26 min
[6]
  Average Duration of Weekly RP Attacks (All Attacks) Change from Baseline, Mean: 91.80 min
  Average Duration of Weekly RP Attacks (All Attacks) Change from Baseline, Median: 91.80 min
  Average Duration of Weekly RP Attacks (All Attacks) Percent Change from Baseline, Mean: −7.81%
  Average Duration of Weekly RP Attacks (All Attacks) Percent Change from Baseline, Median: −7.81%
  Average Duration of Weekly RP Attacks (All Attacks), Mean: 412.26 min
  Average Duration of Weekly RP Attacks (All Attacks), Median: 412.26 min
